Source: PubChem BioAssay (NCI)
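Values below derive from 48-hour exposures of cells grown in 96-well plates, with endpoints linearly interpolated between the two concentrations bracketing the appropriate inhibition level. The concentration for full growth arrest is given as TGI.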

Legend:
Experiment in all cases: DTP human tumour cell line panel, 48 h
OVCAR-8 ovarian = system: OVCAR-8 ovarian
HOP-92 NSCLC = system: HOP-92 NSCLC
NCI-H23 lung = system: NCI-H23 lung
HCT-15 colon = system: HCT-15 colon
A549 NSCLC = system: A549 NSCLC
MALME-3M melanoma = system: MALME-3M melanoma
RXF 393 renal = system: RXF 393 renal
SR leukemia = system: SR leukemia
PC-3 prostate = system: PC-3 prostate
T-47D breast = system: T-47D breast

| Structure (SMILES) | TGI (OVCAR-8 ovarian) | TGI (HOP-92 NSCLC) | TGI (NCI-H23 lung) | TGI (HCT-15 colon) | TGI (A549 NSCLC) | TGI (MALME-3M melanoma) | TGI (RXF 393 renal) | TGI (SR leukemia) | TGI (PC-3 prostate) | TGI (T-47D breast) |
| --- | --- | --- | --- | --- | --- | --- | --- | --- | --- | --- |
| C/C=N\N1C(=O)c2ccccc2C1=O | > 100 µM | > 100 µM | > 100 µM | > 100 µM | > 100 µM | > 100 µM | > 100 µM | > 100 µM | – | – |
| COC(=O)C1=C(C(=O)OC)SC2(S1)C(C(=O)OC)=C(C(=O)OC)Sc1c2ssc1=NC(C)(C)C | 3.77 µM | 2.76 µM | 6.66 µM | 2.19 µM | 8.69 µM | 5.09 µM | 1.96 µM | 1.91 µM | 2.75 µM | – |
| [N-]=[N+]=C(C(=O)N1CCCC1=O)S(=O)(=O)c1ccccc1 | > 100 µM | – | > 100 µM | > 100 µM | > 100 µM | > 100 µM | > 100 µM | > 100 µM | > 100 µM | – |
| N#CCC(=O)N1CCCCCCC1 | – | – | > 100 µM | 30.5 µM | > 100 µM | > 100 µM | > 100 µM | – | – | – |
| COc1cc(Br)c(CC2C3=C(CCN2C(=O)C2CCC2)CC(=O)CC3)cc1O (stereo unspecified) | > 100 µM | 53.6 µM | 51.9 µM | 47.5 µM | > 100 µM | 92.7 µM | – | > 100 µM | > 100 µM | 71.8 µM |
| O=[N+]([O-])C(Cl)=C/C(=C(\Cl)SCc1ccccc1)[N+](=O)[O-] | 59.9 µM | 36.1 µM | 69.6 µM | 35.5 µM | 73.5 µM | 57.8 µM | 26.3 µM | – | 48.1 µM | 40.2 µM |
| O=c1c2ccccc2nc(N/N=C/c2ccccc2O)n1-c1ccccc1 | 5.43 µM | 81.3 µM | > 100 µM | > 100 µM | > 100 µM | > 100 µM | > 100 µM | – | > 100 µM | – |
| O=c1oc2ccccc2c(O)c1C(C/C(CCN1CCCC1)=N\Nc1ccccc1)c1ccccc1 (stereo unspecified) | > 100 µM | 83.6 µM | > 100 µM | > 100 µM | > 100 µM | > 100 µM | 93 µM | 75.1 µM | – | – |
| CCc1cccc(C)c1NC(=O)CC1C(=O)Nc2ccccc2S1(=O)=O (stereo unspecified) | 54.1 µM | 31.8 µM | 41.1 µM | 33.8 µM | 35.2 µM | 33 µM | 40.4 µM | 23.8 µM | – | – |
| NC(CSSCC(N)Cc1ccccc1)Cc1ccccc1 (stereo unspecified) | > 100 µM | – | > 100 µM | > 100 µM | > 100 µM | > 100 µM | – | 91.7 µM | – | – |
| C=CCC(C(=O)Nc1cccc2[nH]cnc12)C(=O)OCC (stereo unspecified) | > 100 µM | > 100 µM | – | > 100 µM | > 100 µM | – | – | > 100 µM | > 100 µM | > 100 µM |
| COc1ccc2c(c1)OC[C@@H]1c3cc(O)c(OCc4ccccc4)cc3O[C@H]21 | > 100 µM | 61.7 µM | 67.9 µM | > 100 µM | 97.1 µM | 85.7 µM | 93.2 µM | – | – | – |
| COC(=O)c1c(O)ccc2c1c1c(n2Cc2ccccc2)C(=O)c2ccccc2C1 | > 100 µM | – | > 100 µM | > 100 µM | > 100 µM | > 100 µM | 60 µM | 37.5 µM | 60.5 µM | – |
| C=CCn1c(-c2ccc([N+](=O)[O-])cc2)csc1=N | > 100 µM | > 100 µM | > 100 µM | > 100 µM | > 100 µM | > 100 µM | 54.4 µM | – | > 100 µM | > 100 µM |
| O=C1/C(=C/c2ccc(Br)cc2)CCC/C1=C\c1ccc(Br)cc1 | 22 µM | – | 21.2 µM | 31.1 µM | 35.3 µM | 51 µM | 18.9 µM | – | – | – |
| C[N+](C)(CCNC(=O)c1cccc2cc3ccccc3nc12)Cc1ccc([N+](=O)[O-])s1 | > 25 µM | > 25 µM | > 25 µM | > 25 µM | > 25 µM | > 25 µM | > 25 µM | – | > 25 µM | > 25 µM |
| O=C1NCCS(=O)(=O)N2CCC[C@@H]12 | > 100 µM | > 100 µM | > 100 µM | > 100 µM | > 100 µM | > 100 µM | > 100 µM | > 100 µM | – | – |
| CNc1ncnc2c1cnn2Cc1cn(COCC(O)CO)nn1 (stereo unspecified) | > 100 µM | > 100 µM | > 100 µM | > 100 µM | > 100 µM | – | – | – | > 100 µM | > 100 µM |
| CC1(C)N=C(c2ccccn2)C(c2ccccn2)=NC1(C)C | > 100 µM | > 100 µM | – | > 100 µM | > 100 µM | > 100 µM | > 100 µM | > 100 µM | – | – |
